Experimental data reported in patent US9868692B2, “Compounds and compositions for intracellular delivery of therapeutic agents” (MODERNATX, Inc., priority 2015, dated 2018).

Columns and labels:
[1] = test system: luciferase (Luc) mRNA expression; experiment: Luc expression (total flux, bioluminescence) after intravenous administration to mice; type: in vivo; settings: i.v., 0.5 mg/kg, 3, 6 and 24 hours, versus other compositions
Experimental: In order to monitor how effectively various nanoparticle compositions deliver therapeutic and/or prophylactics to targeted cells, different nanoparticle compositions including a particular therapeutic and/or prophylactic (for example, a modified or naturally occurring RNA such as an mRNA) are prepared and administered to rodent populations. Mice are intravenously, intramuscularly, intraarterially, or intratumorally administered a single dose including a nanoparticle composition with a formulation such as those provided in Example 3. In some instances, mice may be made to inhale doses. Dose sizes may range from 0.001 mg/kg to 10 mg/kg, where 10 mg/kg describes a dose including 10 mg of a therapeutic and/or prophylactic in a nanoparticle composition for each 1 kg of body mass of the mouse. A control composition including PBS may also be employed.
Upon administration of nanoparticle compositions to mice, dose delivery profiles, dose responses, and toxicity of particular formulations and doses thereof can be measured by enzyme-linked immunosorbent assays (ELISA), bioluminescent imaging, or other methods. For nanoparticle compositions including mRNA, time courses of protein expression can also be evaluated. Samples collected from the rodents for evaluation may include blood, sera, and tissue (for example, muscle tissue from the site of an intramuscular injection and internal tissue); sample collection may involve sacrifice of the animals.
The efficacy of the nanoparticle compositions presented in Table 1A was evaluated with a bioluminescence study. Formulations were administered intravenously to mice (n=6) at a dosage of 0.5 mg/kg (mpk) and bioluminescence measured at 3, 6, and 24 hour time points. The standard MC3 formulation and, in some instances, a control (e.g., a PBS control) were evaluated for comparison. […] In general, flux decreased as time progressed to less than 10% of the initial flux.
The total flux (measured by area under the curve, AUC) induced by administration of a formulation including a given lipid relative to that induced by administration of a formulation including MC3 was also measured for several lipids.

[2] = Encapsulation efficiency of RNA, QUANT-IT RIBOGREEN RNA assay; type: physicochemical; settings: Table 1A formulations
Source text: The efficiency of encapsulation of a therapeutic and/or prophylactic describes the amount of therapeutic and/or prophylactic that is encapsulated or otherwise associated with a nanoparticle composition after preparation, relative to the initial amount provided. The encapsulation efficiency is desirably high (e.g., close to 100%). The encapsulation efficiency may be measured, for example, by comparing the amount of therapeutic and/or prophylactic in a solution containing the nanoparticle composition before and after breaking up the nanoparticle composition with one or more organic solvents or detergents. Fluorescence may be used to measure the amount of free therapeutic and/or prophylactic (e.g., RNA) in a solution. For the nanoparticle compositions described herein, the encapsulation efficiency of a therapeutic and/or prophylactic may be at least 50%, for example 50%, 55%, 60%, 65%, 70%, 75%, 80%, 85%, 90%, 91%, 92%, 93%, 94%, 95%, 96%, 97%, 98%, 99%, or 100%. In some embodiments, the encapsulation efficiency may be at least 80%. In certain embodiments, the encapsulation efficiency may be at least 90%.
For nanoparticle compositions including an RNA, a QUANT-IT™ RIBOGREEN® RNA assay (Invitrogen Corporation Carlsbad, Calif.) can be used to evaluate the encapsulation of an RNA by the nanoparticle composition. The samples are diluted to a concentration of approximately 5 μg/mL in a TE buffer solution (10 mM Tris-HCl, 1 mM EDTA, pH 7.5). 50 μL of the diluted samples are transferred to a polystyrene 96 well plate and either 50 μL of TE buffer or 50 μL of a 2% Triton X-100 solution is added to the wells. The plate is incubated at a temperature of 37° C. for 15 minutes. The RIBOGREEN® reagent is diluted 1:100 in TE buffer, and 100 μL of this solution is added to each well. The fluorescence intensity can be measured using a fluorescence plate reader (Wallac Victor 1420 Multilablel Counter; Perkin Elmer, Waltham, Mass.) at an excitation wavelength of, for example, about 480 nm and an emission wavelength of, for example, about 520 nm. The fluorescence values of the reagent blank are subtracted from that of each of the samples and the percentage of free RNA is determined by dividing the fluorescence intensity of the intact sample (without addition of Triton X-100) by the fluorescence value of the disrupted sample (caused by the addition of Triton X-100).

[3] = Particle size, polydispersity index (and zeta potential) of nanoparticle compositions, Zetasizer Nano ZS; type: physicochemical; settings: Table 1A; lipid:DSPC:cholesterol:PEG-DMG 50:10:38.5:1.5 mol %, mRNA
Source text: Nanoparticle compositions may be characterized by a variety of methods. For example, microscopy (e.g., transmission electron microscopy or scanning electron microscopy) may be used to examine the morphology and size distribution of a nanoparticle composition. Dynamic light scattering or potentiometry (e.g., potentiometric titrations) may be used to measure zeta potentials. Dynamic light scattering may also be utilized to determine particle sizes. Instruments such as the Zetasizer Nano ZS (Malvern Instruments Ltd, Malvern, Worcestershire, UK) may also be used to measure multiple characteristics of a nanoparticle composition, such as particle size, polydispersity index, and zeta potential.
A Zetasizer Nano ZS (Malvern Instruments Ltd, Malvern, Worcestershire, UK) can be used to determine the particle size, the polydispersity index (PDI) and the zeta potential of the nanoparticle compositions in 1×PBS in determining particle size and 15 mM PBS in determining zeta potential.

Row | Compound | flux at all time points measured [1] | EE (%) [2] [%] | Size (nm) [3] [nm]
1 | CCCCCCCCCOC(=O)CCCCCCCN(CCCCCCCC(=O)OC(CCCCCCCC)CCCCCCCC)CCOC(C)=O [Compound 9, Heptadecan-9-yl 8-((2-acetoxyethyl)(8-(nonyloxy)-8-oxooctyl)amino) octanoate] | significantly lower flux | – | –
2 | CCCCCCCCCOC(=O)CCCCCCCN(CCCCCCCC(=O)OC(CCCCCCCC)CCCCCCCC)CCOCCN(C)C [Compound 17, Heptadecan-9-yl 8-((2-(2-(dimethylamino)ethoxy)ethyl)(8-(nonyloxy)-8-oxooctyl)amino)octanoate] | significantly lower flux | – | –
3 | CCCCCCCCCOC(=O)CCCCCCCN(CCO)CCCCCCCC(=O)OC(CCCC)CCCC [Compound 57, nonan-5-yl 8-((2-hydroxyethyl)(8-(nonyloxy)-8-oxooctyl)amino) octanoate] | significantly lower flux | – | –
4 | CCCCCCCCCOC(=O)CCCCCCCN(CCO)CCCCCCCC(=O)OC(CCC)CCC [Compound 58, heptan-4-yl 8-((2-hydroxyethyl)(8-(nonyloxy)-8-oxooctyl)amino) octanoate] | significantly lower flux | – | –
5 | CCCCCCCCCOC(=O)CCCCCCCN(CCO)CCCCCCCC(=O)OC(CC)CC [Compound 59, nonyl 8-((2-hydroxyethyl)(8-oxo-8-(pentan-3-yloxy)octyl)amino) octanoate] | significantly lower flux | – | –
6 | CCCCCCCCCOC(=O)CCCCCCCN(CCCCCCCC(=O)OC(CCCCCCCC)CCCCCCCC)CCC(=O)O [Compound 125, 3-((8-(Heptadecan-9-yloxy)-8-oxooctyl)(8-(nonyloxy)-8-oxooctyl)amino)propanoic acid] | significantly lower flux | – | –
7 | CCCCCCCCCCCCN(CCO)CCCCCCCCCCCC(=O)OC [Compound 137, Methyl 12-(dodecyl(2-hydroxyethyl)amino)dodecanoate] | significantly lower flux | 85.7 | 184.4
8 | CCCCCCCC/C=C\COC(=O)CCCCCN(CCO)CCCCCC(=O)OC/C=C\CCCCCCCC [Compound 140, Di((Z)-undec-2-en-1-yl) 6,6′-((2-hydroxyethyl)azanediyl)dihexanoate] | significantly lower flux | – | –
9 | CCCCCCCCCCCOC(=O)CCCCCN(CCO)CCCCCC(=O)OCCCCCCCCCCC [Compound 141, Diundecyl 6,6′-((2-hydroxyethyl)azanediyl)dihexanoate] | significantly lower flux | – | –
10 | CCCCCCCCCOC(=O)CCCCCCCN(CCO)CCCCCCCC(=O)OC(C)(C)C [Compound 158, tert-Butyl 8-((2-hydroxyethyl)(8-(nonyloxy)-8-oxooctyl)amino)octanoate] | significantly lower flux | – | –
